# According to US8980909B2, “HDAC inhibiting derivatives of camptothecin” (Crystal Biopharmaceutical LLC, priority 2011, dated 2015):
# pIC50: −log10 of the molar value.
# How the values were obtained:
# RXF 393 = test: In vitro anti-proliferation assay (ATPlite), RXF 393; assay type: cell-based; conditions: for pIC50: Homo sapiens, Renal Cancer, RXF 393, 72 hours
# Method: (§1) Cell antiproliferation was assayed by PerkinElmer ATPlite™ Luminescence Assay System. The cancer cell lines were plated at 10 k cells per well in Costar 96-well plates with different concentration of compounds for 72 hours with […]. After that, one lyophilized substrate solution vial was reconstituted by adding 5 mL of substrate buffer solution and was agitated gently until the solution is homogeneous. 50 μL of mammalian cell lysis solution was added to 100 μL of cell suspension per well of a microplate and the plate was shaken for five minutes in an orbital shaker at 700 rpm. This procedure will lyses the cells and stabilizes the ATP. Next, 50 μL substrate solution was added to the wells and microplate was shaken for five minutes in an orbital shaker at 700 rpm. Finally, the luminescence was measured by a PerkinElmer TopCount® Microplate Scintillation Counter. Such assays, carried out with a range of doses of test compounds, allow the determination of the cellular anti-antiproliferative IC50 of the compounds of the present invention.
# (§2) The cellular antiproliferative assay were conducted side-by-side for Irinotecan (a FDA approved semisynthetic Camptothecin), and CY-700 (the first-in-class dual-functional semisynthetic Camptothecin/HDAC inhibitor), in 53 different cancer cell lines of breast cancer, renal cancer, non-small cell lung cancer, colon cancer, leukemia, multiple myeloma, ovarian cancer, prostate cancer, melanoma, and CNS cancer.
# SNB-19 = test: In vitro anti-proliferation assay (ATPlite), SNB-19; assay type: cell-based; conditions: for pIC50: Homo sapiens, CNS Cancer, SNB-19, 72 hours
# Method: as §1, §2
# SNB-75 = test: In vitro anti-proliferation assay (ATPlite), SNB-75; assay type: cell-based; conditions: for pIC50: Homo sapiens, CNS Cancer, SNB-75, 72 hours
# Method: as §1, §2
# T-47D = test: In vitro anti-proliferation assay (ATPlite), T-47D; assay type: cell-based; conditions: for pIC50: Homo sapiens, T47D, Breast Cancer, T-47D, 72 hours
# Method: as §1, §2
# SF-539 = test: In vitro anti-proliferation assay (ATPlite), SF-539; assay type: cell-based; conditions: for pIC50: Homo sapiens, CNS Cancer, SF-539, 72 hours
# Method: as §1, §2
# MCF7 = test: In vitro anti-proliferation assay (ATPlite), MCF7; assay type: cell-based; conditions: for pIC50: Homo sapiens, Breast Cancer, MCF7, 72 hours
# Method: as §1, §2
# LOX IMVI = test: In vitro anti-proliferation assay (ATPlite), LOX IMVI; assay type: cell-based; conditions: for pIC50: Homo sapiens, Melanoma, LOX IMVI, 72 hours
# Method: as §1, §2
# SK-MEL-5 = test: In vitro anti-proliferation assay (ATPlite), SK-MEL-5; assay type: cell-based; conditions: for pIC50: Homo sapiens, Melanoma, SK-MEL-5, 72 hours
# Method: as §1, §2
# CCRF-CEM = test: In vitro anti-proliferation assay (ATPlite), CCRF-CEM; assay type: cell-based; conditions: for pIC50: Homo sapiens, Leukemia, CCRF-CEM, 72 hours
# Method: as §1, §2
# NCI/ADR-RES = test: In vitro anti-proliferation assay (ATPlite), NCI/ADR-RES; assay type: cell-based; conditions: for pIC50: Homo sapiens, Ovarian Cancer, NCI/ADR-RES, 72 hours
# Method: as §1, §2
# SF-268 = test: In vitro anti-proliferation assay (ATPlite), SF-268; assay type: cell-based; conditions: for pIC50: Homo sapiens, CNS Cancer, SF-268, 72 hours
# Method: as §1, §2
# NCI-H226 = test: In vitro anti-proliferation assay (ATPlite), NCI-H226; assay type: cell-based; conditions: for pIC50: Homo sapiens, NSCLC, NCI-H226, 72 hours
# Method: as §1, §2
# BT-549 = test: In vitro anti-proliferation assay (ATPlite), BT-549; assay type: cell-based; conditions: for pIC50: Homo sapiens, Breast Cancer, BT-549, 72 hours
# Method: as §1, §2
# OVCAR-8 = test: In vitro anti-proliferation assay (ATPlite), OVCAR-8; assay type: cell-based; conditions: for pIC50: Homo sapiens, Ovarian Cancer, OVCAR-8, 72 hours
# Method: as §1, §2
# [1] = system: 53 different cancer cell lines; test: In vitro anti-proliferation assay (ATPlite), panel of 53 cancer cell lines; assay type: cell-based; conditions: among 53 cancer cell lines, side-by-side with Irinotecan
# Method: as §1, with “invention. […]” for “invention.”
# HDAC-1 = HDAC-1 (Homo sapiens, UniProt Q13547); test: Inhibition of histone deacetylase enzymatic activity (Fluor-de-Lys), HDAC-1; assay type: biochemical; conditions: HDAC subtype HDAC-1
# Sequence of HDAC-1 (Q13547 whole entry): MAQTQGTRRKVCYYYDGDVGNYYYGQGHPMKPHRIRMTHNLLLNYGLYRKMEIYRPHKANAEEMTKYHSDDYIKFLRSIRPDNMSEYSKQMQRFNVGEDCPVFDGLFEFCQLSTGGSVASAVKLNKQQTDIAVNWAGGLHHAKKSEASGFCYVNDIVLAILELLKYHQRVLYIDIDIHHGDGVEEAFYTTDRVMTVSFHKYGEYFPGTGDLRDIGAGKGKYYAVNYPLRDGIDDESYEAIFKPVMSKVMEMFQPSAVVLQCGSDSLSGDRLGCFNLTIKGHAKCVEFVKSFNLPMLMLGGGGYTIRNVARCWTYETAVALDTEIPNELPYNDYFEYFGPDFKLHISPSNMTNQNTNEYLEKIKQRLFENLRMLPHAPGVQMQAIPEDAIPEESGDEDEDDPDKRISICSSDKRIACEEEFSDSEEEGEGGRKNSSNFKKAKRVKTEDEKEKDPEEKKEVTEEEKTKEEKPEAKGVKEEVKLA
# Method: The following assay protocol was used to assay the compounds of the invention against the HDAC enzymes (HDAC-1, 2, 3, 4, 5, 6, 7, 8, 9, 10, and 11.). […] The enzyme stock solution was 4 μg/mL in buffer. The compounds were pre-incubated (2 μl in DMSO diluted to […] in buffer for transfer to assay plate) with enzyme (20 μl of 4 μg/ml) for 10 minutes at room temperature (35 μl pre-incubation volume). The mixture was pre-incubated for 5 minutes at room temperature. The reaction was started by bringing the temperature to 37° C. and adding 15 μl substrate. Total reaction volume was 50 μl. […] Such assays, carried out with a range of doses of test compounds, allowed the determination of an approximate IC50 value.
# U251 = test: In vitro anti-proliferation assay (ATPlite), U251; assay type: cell-based; conditions: for pIC50: Homo sapiens, U-251, CNS Cancer, U251, 72 hours
# Method: as §1, §2
# CAKI-1 = test: In vitro anti-proliferation assay (ATPlite), CAKI-1; assay type: cell-based; conditions: for pIC50: Homo sapiens, Renal Cancer, CAKI-1, 72 hours
# Method: as §1, §2
# [2] = In vitro activities (comparison in words, test not specified)
# [3] = Solubility (comparison in words); assay type: physicochemical
SMILES,pIC50 (RXF 393),pIC50 (SNB-19),pIC50 (SNB-75),pIC50 (T-47D),pIC50 (SF-539),pIC50 (MCF7),pIC50 (LOX IMVI),pIC50 (SK-MEL-5),pIC50 (CCRF-CEM),pIC50 (NCI/ADR-RES),pIC50 (SF-268),pIC50 (NCI-H226),pIC50 (BT-549),pIC50 (OVCAR-8),pIC50 (U251),pIC50 (CAKI-1),other results
CCc1c2c(nc3ccc(OCCCCCCC(=O)NO)cc13)-c1cc3c(c(=O)n1C2)COC(=O)[C@]3(O)CC [CY-700],5.64,5.96,5.64,5.68,6.22,6.30,6.15,5.89,6.40,5.29,6.30,5.92,5.59,5.57,6.15,6.15,"Ratio (RXF 393; Irinotecan IC50 / CY-700 IC50, RXF 393): 14.7; Ratio (SNB-19; Irinotecan IC50 / CY-700 IC50, SNB-19): 22.0; Ratio (SNB-75; Irinotecan IC50 / CY-700 IC50, SNB-75): 6.9; Ratio (T-47D; Irinotecan IC50 / CY-700 IC50, T-47D): 11.7; Ratio (SF-539; Irinotecan IC50 / CY-700 IC50, SF-539): 8.9; Ratio (MCF7; Irinotecan IC50 / CY-700 IC50, MCF7): 12.1; Ratio (LOX IMVI; Irinotecan IC50 / CY-700 IC50, LOX IMVI): 5.2; Ratio (SK-MEL-5; Irinotecan IC50 / CY-700 IC50, SK-MEL-5): 8.6; Ratio (CCRF-CEM; Irinotecan IC50 / CY-700 IC50, CCRF-CEM): 9.7; Ratio (NCI/ADR-RES; Irinotecan IC50 / CY-700 IC50, NCI/ADR-RES): 8.2; Ratio (SF-268; Irinotecan IC50 / CY-700 IC50, SF-268): 7.4; Ratio (NCI-H226; Irinotecan IC50 / CY-700 IC50, NCI-H226): 7.2; Ratio (BT-549; Irinotecan IC50 / CY-700 IC50, BT-549): 7.0; Ratio (OVCAR-8; Irinotecan IC50 / CY-700 IC50, OVCAR-8): 6.4; number of cancer cell lines with better in vitro potency than Irinotecan [1]: 47; pIC50 (HDAC-1; Fluor-de-Lys substrate, approximate IC50): 7.72; Ratio (U251; Irinotecan IC50 / CY-700 IC50, U251): 5.5; Ratio (CAKI-1; Irinotecan IC50 / CY-700 IC50, CAKI-1): 15.3"
"CCc1c2c(nc3ccc(OC(=O)N4CCC(N5CCCCC5)CC4)cc13)-c1cc3c(c(=O)n1C2)COC(=O)[C@]3(O)CC [Irinotecan, reference compound]",4.47,4.62,4.80,4.61,5.30,5.21,5.46,4.94,5.46,4.37,5.41,5.07,4.73,4.76,5.39,5.00,HDAC-1 IC50 (result in words) (HDAC-1; unit not given): No activity
CC[C@@]1(O)C(=O)OCc2c1cc1n(c2=O)Cc2cc3c(CN(C)C)c(OC(=O)N4CCN(c5ncc(C(=O)NO)cn5)CC4)ccc3nc2-1 [CY-705],–,–,–,–,–,–,–,–,–,–,–,–,–,–,–,–,in vitro activities as compared to CY-700 [2]: comparable in vitro activities; solubility as compared to CY-700 [3]: significantly better solubility
